Experimental data as given in ChEMBL document CHEMBL3600354, “Nitric oxide inhibitory activity and antioxidant evaluations of 2-benzoyl-6-benzylidenecyclohexanone analogs, a novel series of curcuminoid and diarylpentanoid derivatives” (Bioorg Med Chem Lett, 2015).
≈ marks a conversion by molar mass, not a printed value.

Assays:
[1] = tested on: RAW264.7; assay: Inhibition of nitric oxide production in LPS/IFNgamma-stimulated mouse RAW264.7 cells at 50 uM incubated for 17 hrs by Griess assay; assay type: functional; conditions: RAW264.7, 17 h
[2] = Antioxidant activity assessed as nitric oxide radical scavenging activity at 500 uM incubated for 60 mins with light exposure at room temperature by Griess assay; assay type: physicochemical; conditions: 1 h
[3] = Antioxidant activity incubated at 50 degC for 20 mins by FRAP assay; assay type: physicochemical
[4] = Antioxidant activity assessed as DPPH radical scavenging activity at 200 uM incubated for 30 mins under dark conditions; assay type: physicochemical; conditions: 0.5 h
[5] = tested on: RAW264.7; assay: Cytotoxicity against LPS/IFNgamma-stimulated mouse RAW264.7 cells by MTT assay; assay type: cell-based
[6] = tested on: RAW264.7; assay: Inhibition of nitric oxide production in LPS/IFNgamma-stimulated mouse RAW264.7 cells incubated for 17 hrs by Griess assay; assay type: functional, cell-based; conditions: RAW264.7, 17 h
[7] = Solubility in phosphate buffer at pH 7.4 stirred for 24 hrs at room temperature by HPLC method; assay type: physicochemical
[8] = Antioxidant activity assessed as DPPH radical scavenging activity incubated for 30 mins under dark conditions; assay type: physicochemical
[9] = Stability in human liver microsomes assessed as compound remaining at 1 mM pre-incubated at 37 degC for 5 mins followed by NAPDH addition and further incubated at 37 degC for 120 mins by HPLC method; assay type: ADME; conditions: read-out: Stability
[10] = Chemical stability in phosphate buffer at pH 7.4 at 20 uM measured over 30 mins at 5 mins intervals at 25 degC by ultraviolet absorption spectroscopy; assay type: physicochemical; conditions: pH 7.4, 0.5 h
[11] = tested on: Liver microsome; assay: Stability in human liver microsomes assessed as compound degradation at 1 mM pre-incubated at 37 degC for 5 mins followed by NAPDH addition and further incubated at 37 degC for 15 to 120 mins by HPLC method; assay type: ADME; conditions: 1000 µM

inhibition (INH) [2]	Activity [3]	inhibition (INH) [4]	IC50 [6]	solubility at 24 h [7]	IC50 [8]	remaining at 2 h, 1000 µM [9]	Stability [10]	Stability [11]	SMILES	inhibition at 50 µM [1]	IC50 [5]
14.8%	0.015 mmolequiv/L	17.8%							O=C(C1=C(O)/C(=C/c2cccc3ccccc23)CCC1)c1ccccc1	15%	
2.6%									O=C1O[C@H]([C@@H](O)CO)C(O)=C1O [ASCORBIC ACID]		
21%	0.073 mmolequiv/L	11.7%							O=C(C1=C(O)/C(=C/c2ccc3ccccc3c2)CCC1)c1ccccc1	9.3%	
12.4%	0.395 mmolequiv/L								Cc1c(C)c2c(c(C)c1O)CCC(C)(C(=O)O)O2 (configuration not stated) [TROLOX]		
6.5%	0.798 mmolequiv/L								Cc1cc(C(C)(C)C)c(O)c(C(C)(C)C)c1 [BUTYLATED HYDROXYTOLUENE]		
1.6%	0.14 mmolequiv/L	18.4%							Cc1ccc(/C=C2\CCCC(C(=O)c3ccccc3)=C2O)s1	7.6%	
28.3%	0.018 mmolequiv/L	21.8%	32.1 µM						COc1cccc(/C=C2\CCCC(C(=O)c3ccccc3)=C2O)c1	71.6%	> 100 µM
88.3%	0.803 mmolequiv/L	84.2%	14.7 µM	1.1 µM (≈ 0.405 µg/mL)	23.6 µM	< 20%	Unstable	Unstable	COc1cc(/C=C/C(=O)CC(=O)/C=C/c2ccc(O)c(OC)c2)ccc1O [CURCUMIN]	99.3%	28.8 µM
				3.3 µM (≈ 1.06 µg/mL)		> 60%	Stable	Unstable	O=C(C1=C(O)/C(=C/c2ccc(O)c(O)c2)CCC1)c1ccccc1		
3.3%	0.177 mmolequiv/L	21.8%							O=C(C1=C(O)/C(=C/c2cccs2)CCC1)c1ccccc1	8.2%	
